# Experimental data reported in US9388250B2, “Method to treat psoriasis and other hyperproliferative skin disorders” (CORNELL UNIVERSITY, priority 2009, dated 2016).
# How the values were obtained:
# C57B1/6 mouse ears [1] = assay: IL-22-induced acanthosis in mouse ears, topical application of KH7; type: in vivo; details: ear painted with 100 micromolar KH7 in DMSO one hour after IL-22 injection, every other day for two weeks, three mice, ANOVA P<0.05 IL-22 vs IL-22+KH7, not different from control
# Protocol: FIG. 11. Topical application of KH7 inhibits IL-22-induced acanthosis As before C57B1/6 mouse ears were injected with normal saline (control) or 500 ng of IL-22 in 20 microliters of normal saline (IL-22). After incubation for one hour the left ear was painted with 5 microliters of DMSO and the right ear was painted with 100 micromolar KH7 in DMSO (IL-22+KH7). This was repeated every other day for two weeks. The ears were then removed and the total area of acanthosis of each ear was calculated and represented as a % of acanthosis relative to control ears. […]
# IL-22 protein was purchased from Preprotech and reconstituted in sterile water as per the manufacturer's instructions. […] Epidermal height was measured from the bottom of the basal cell layer to the top of the granular cell layer using a microscope and a micrometer. Three to four measurements were taken along the ear and multiple sections were measured for each condition. In addition, the total number of acanthotic ear sections were recorded as an indication of the distribution of acanthosis.
# Topical application of KH7 inhibits IL-22-induced acanthosis. […] The ears were then removed and the total area of acanthosis of each ear was calculated and represented as a % of acanthosis relative to control ears. […]
# C57B1/6 mouse ears [2] = assay: IL-22-induced acanthosis in mouse ears, subcutaneous co-injection of IL-22+KH7; type: in vivo
# Protocol: FIG. 1 Tissue sections stained with H/E of C57B1/6 mouse ears following injection with saline, IL-22 and IL-22+KH7 (a sAc inhibitor). Slides were visualized on a standard pathology microscope. Bar graph in lower right corner represents the average±SEM thickness of epidermis in each of three conditions listed in the previous sentence. a student t test was performed with p value listed.
# IL-22 protein was purchased from Preprotech and reconstituted in sterile water as per the manufacturer's instructions. Concentrated IL-22 was diluted to a working concentration of 500 ng/20 μL in sterile saline alone, or with KH7 at 100 μM. These solutions were prepared fresh each day they were used. C57B1/6 mice greater than 2 months in age, kept under a normal light/dark cycle, and fed normal chow were injected subcutaneously in their left ear with 20 μL of IL-22 alone and in their right ear with 20 μL of IL-22+KH7 every other day for two weeks, or were injected subcutaneously in their left and right ear with 20 μL of IL-22 and then treated topically (54) following each injection with vehicle on the left ear and KH7 on the right ear every other day for two weeks. As a control C57B1/6 mice were injected with 20 μL of IL-22 in their left ear and 20 μL of sterile saline alone in their right ear every other day for two weeks. After two weeks the ears were removed, formalin fixed, paraffin embedded, sectioned, and stained with simple hematoxylin and eosin. Epidermal height was measured from the bottom of the basal cell layer to the top of the granular cell layer using a microscope and a micrometer. Three to four measurements were taken along the ear and multiple sections were measured for each condition. In addition, the total number of acanthotic ear sections were recorded as an indication of the distribution of acanthosis.
# keratinocytes in culture = assay: IL-22-induced rise in cAMP within keratinocytes in culture; type: cell-based; details: IL-22 stimulated
# From the text: To address the role of sAC in keratinocyte proliferation we studied IL-22-induced psoriasis pathogenesis as a model system. IL-22 induced a rise in cAMP within keratinocytes in culture. This cAMP rise was inhibited by KH7 (a specific inhibitor of sAC).
smiles,measurement,setting,value
CC(Sc1nc2ccccc2[nH]1)C(=O)N/N=C/c1cc(Br)ccc1O (centres unmarked) [KH7],"IL-22-induced acanthosis (total area of acanthosis, % relative to control ears)",C57B1/6 mouse ears [1],inhibits
same,IL-22-induced acanthosis (thickness of epidermis),"C57B1/6 mouse ears [2]; IL-22 500 ng/20 μL with KH7 at 100 μM, every other day for two weeks",completely blocked
same,IL-22-induced parakeratosis,"C57B1/6 mouse ears [2]; IL-22 with KH7, every other day for two weeks",completely blocked
same,IL-22-induced recruitment of immunocytes (ie T cells),"C57B1/6 mouse ears [2]; injection of IL-22+KH7, H/E sections",completely blocked
same,IL-22-induced cAMP rise within keratinocytes,keratinocytes in culture,inhibited
